Literature values as cited in PubChem BioAssay AID1259409 (Chemical Carcinogenesis Research Information System (CCRIS), 2018).
Where a SMILES comes first, the peptide text is derived from it.

System: rodent chemically induced tumor inhibition, incidence and multiplicity
Test: CCRIS tumor inhibitor studies
Settings: Species: RAT

## NCC[Se][Se]CCN
Carcinogen: 7,12-DIMETHYLBENZ[A]ANTHRACENE, 57-97-6, Dose [Inhibitor]: 0, 0.000025 MOL/KG DIET BEGINNING 2 WK PRIOR TO CARCINOGEN AND CONTINUED FOR STUDY DURATION (STUDY DURATION: 25 WK), Route [Inhibitor]: ORAL, Strain/Sex: CD-1/FEMALE, Target Tissue: Type of Lesion: MAMMARY GLAND: ADENOCARCINOMA, Dose [Carcinogen]: 10 MG ONCE, Promoter: NONE USED
  tumour outcome (control, treated, inhibition, significance): 18/25 (72%), 14/25 (56%), 22%, not significant
Carcinogen: 7,12-DIMETHYLBENZ[A]ANTHRACENE, 57-97-6, Dose [Inhibitor]: 0, 0.00004 MOL/KG DIET BEGINNING 2 WK PRIOR TO CARCINOGEN AND CONTINUED FOR STUDY DURATION (STUDY DURATION: 25 WK), Route [Inhibitor]: ORAL, Strain/Sex: CD-1/FEMALE, Target Tissue: Type of Lesion: MAMMARY GLAND: ADENOCARCINOMA, Dose [Carcinogen]: 10 MG ONCE, Promoter: NONE USED
  tumour outcome (control, treated, inhibition, significance): 18/25 (72%), 11/25 (44%), 39%, p<0.05

## CCCCC[Se]C#N
Carcinogen: 7,12-DIMETHYLBENZ[A]ANTHRACENE, 57-97-6, Dose [Inhibitor]: 0.1, 2 PPM (SELENIUM) IN DIET FOR 3 WK BEGINNING 2 WK PRIOR TO CARCINOGEN DOSE (STUDY DURATION: 25 WK), Route [Inhibitor]: ORAL, Strain/Sex: SPRAGUE-DAWLEY/FEMALE, Target Tissue: Type of Lesion: MAMMARY GLAND: TUMOR, Dose [Carcinogen]: 10 MG ONCE, Promoter: NONE USED
  tumour outcome (control, treated, inhibition, significance): 25/30 (83%), 11/30 (37%), 55%, p<0.05

## NCCCC[C@H](N)C(=O)N[C@@H](CCC(=O)O)C(=O)O (H-Lys-Glu-OH)
Carcinogen: N-BUTYL-N-(4-HYDROXYBUTYL)NITROSAMINE, 3817-11-6, Dose [Inhibitor]: 0, 30 UG/ANIMAL IN RIGHT THIGH DOES OF 1 UG/KG BW 1/D FOR 5 D WITH 4 WK INTERVALS FOR 6 MO (STUDY DURATION: 49 WK), Route [Inhibitor]: INTRAMUSCULAR, Strain/Sex: ALBINO/MALE, Target Tissue: Type of Lesion: URINARY BLADDER: BENIGN TUMOR, Dose [Carcinogen]: 0.04% IN DRINKING WATER FOR FIRST 12 WK
  tumour outcome (control, treated, inhibition, significance): 13/49 (27%), 14/50 (28%), -4%, not calculated
Carcinogen: N-BUTYL-N-(4-HYDROXYBUTYL)NITROSAMINE, 3817-11-6, Dose [Inhibitor]: 0, 30 UG/ANIMAL IN RIGHT THIGH DOES OF 1 UG/KG BW 1/D FOR 5 D WITH 4 WK INTERVALS FOR 6 MO (STUDY DURATION: 49 WK), Route [Inhibitor]: INTRAMUSCULAR, Strain/Sex: ALBINO/MALE, Target Tissue: Type of Lesion: URINARY BLADDER: IN SITU CARCINOMA, Dose [Carcinogen]: 0.04% IN DRINKING WATER FOR FIRST 12 WK
  tumour outcome (control, treated, inhibition, significance): 11/49 (22%), 4/50 (8%), 64%, not calculated

## O=c1[nH]cnc2[nH]ncc12
Carcinogen: N-BUTYL-N-(4-HYDROXYBUTYL)NITROSAMINE, 3817-11-6, Dose [Inhibitor]: 0.02% DIET DAILY FOR 34 WK STARTING AFTER CARCINOGEN TREATMENT (STUDY DURATION: 38 WK), Route [Inhibitor]: ORAL, Strain/Sex: F344/MALE, Target Tissue: Type of Lesion: URINARY BLADDER: PAPILLOMA, Dose [Carcinogen]: 0.01% IN DRINKING WATER FOR 4 WK, Promoter: NONE USED
  tumour outcome (control, treated, inhibition, significance): 33%, 43%, -30%, not significant
